Tested on: 556581-035-R-J1-PDC complex spheroid growth
Test: Anticancer human tumor 556581-035-R-J1-PDC patient-derived ovarian carcinoma cell line growth inhibition [AhR]
Conditions: for IC50: curve of first compound; for viability, T/C: stronger effect = lower value
How it was run: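 Agents were dosed in half-log steps down from roughly clinical Cmax, or from 10 microM where Cmax was unknown, alone and with AhR antagonists. Read-out: percent test/control growth of tumor spheroids containing HUVEC and MSC stromal cells.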

[1] = second compound 0.1 µM, first compound 0.00949 µM
[2] = second compound 0.1 µM, first compound 0.03 µM
[3] = second compound 0.1 µM, first compound 0.0949 µM
[4] = second compound 0.1 µM, first compound 0.3 µM
[5] = second compound 0.316 µM, first compound 0.00949 µM
[6] = second compound 0.316 µM, first compound 0.03 µM
[7] = second compound 0.316 µM, first compound 0.0949 µM
[8] = second compound 0.316 µM, first compound 0.3 µM
[9] = second compound 1 µM, first compound 0.00949 µM
[10] = second compound 1 µM, first compound 0.03 µM
[11] = second compound 1 µM, first compound 0.0949 µM
[12] = second compound 1 µM, first compound 0.3 µM
[13] = second compound 3.16 µM, first compound 0.00949 µM
[14] = second compound 3.16 µM, first compound 0.03 µM
[15] = second compound 3.16 µM, first compound 0.0949 µM
[16] = second compound 3.16 µM, first compound 0.3 µM
[17] = second compound 10 µM, first compound 0.00949 µM
[18] = second compound 10 µM, first compound 0.03 µM
[19] = second compound 10 µM, first compound 0.0949 µM
[20] = second compound 10 µM, first compound 0.3 µM
[21] = second compound 0.1 µM, first compound 0.0316 µM
[22] = second compound 0.1 µM, first compound 0.1 µM
[23] = second compound 0.1 µM, first compound 0.316 µM
[24] = second compound 0.1 µM, first compound 1 µM
[25] = second compound 0.1 µM, first compound 3.16 µM
[26] = second compound 0.1 µM, first compound 10 µM
[27] = second compound 0.316 µM, first compound 0.0316 µM
[28] = second compound 0.316 µM, first compound 0.1 µM
[29] = second compound 0.316 µM, first compound 0.316 µM
[30] = second compound 0.316 µM, first compound 1 µM
[31] = second compound 0.316 µM, first compound 3.16 µM
[32] = second compound 0.316 µM, first compound 10 µM
[33] = second compound 1 µM, first compound 0.0316 µM
[34] = second compound 1 µM, first compound 0.1 µM
[35] = second compound 1 µM, first compound 0.316 µM
[36] = second compound 1 µM, first compound 1 µM
[37] = second compound 1 µM, first compound 3.16 µM
[38] = second compound 1 µM, first compound 10 µM
[39] = second compound 3.16 µM, first compound 0.0316 µM
[40] = second compound 3.16 µM, first compound 0.1 µM
[41] = second compound 3.16 µM, first compound 0.316 µM
[42] = second compound 3.16 µM, first compound 1 µM
[43] = second compound 3.16 µM, first compound 3.16 µM
[44] = second compound 3.16 µM, first compound 10 µM
[45] = second compound 10 µM, first compound 0.0316 µM
[46] = second compound 10 µM, first compound 0.1 µM
[47] = second compound 10 µM, first compound 0.316 µM
[48] = second compound 10 µM, first compound 1 µM
[49] = second compound 10 µM, first compound 3.16 µM
[50] = second compound 10 µM, first compound 10 µM
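For viability, T/C in this document: compound exposure lasted 7 days; 100% = DMSO vehicle control growth.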

SMILES: CCN(c1cc(-c2ccc(CN3CCOCC3)cc2)cc(C(=O)NCc2c(C)cc(C)[nH]c2=O)c1C)C1CCOCC1 + Cc1cncc(-c2nc(NCCc3c[nH]c4ccccc34)c3ncn(C(C)C)c3n2)c1
- IC50 (second compound 0.1 µM): > 3 µM
- IC50 (second compound 0.316 µM): > 3 µM
- IC50 (second compound 1 µM): > 3 µM
- IC50 (second compound 3.16 µM): > 3 µM
- IC50 (second compound 10 µM): 2.23 µM
- viability, T/C [1]: 97.7%
- viability, T/C [2]: 109%
- viability, T/C [3]: 96.2%
- viability, T/C [4]: 102%
- viability, T/C (second compound 0.1 µM, first compound 0.949 µM): 102%
- viability, T/C (second compound 0.1 µM, first compound 3 µM): 100%
- viability, T/C [5]: 98%
- viability, T/C [6]: 96.2%
- viability, T/C [7]: 102%
- viability, T/C [8]: 101%
- viability, T/C (second compound 0.316 µM, first compound 0.949 µM): 99.5%
- viability, T/C (second compound 0.316 µM, first compound 3 µM): 104%
- viability, T/C [9]: 104%
- viability, T/C [10]: 118%
- viability, T/C [11]: 112%
- viability, T/C [12]: 94.9%
- viability, T/C (second compound 1 µM, first compound 0.949 µM): 88.2%
- viability, T/C (second compound 1 µM, first compound 3 µM): 92.3%
- viability, T/C [13]: 86.4%
- viability, T/C [14]: 99.3%
- viability, T/C [15]: 101%
- viability, T/C [16]: 88.6%
- viability, T/C (second compound 3.16 µM, first compound 0.949 µM): 92.1%
- viability, T/C (second compound 3.16 µM, first compound 3 µM): 92.2%
- viability, T/C [17]: 84.4%
- viability, T/C [18]: 83.8%
- viability, T/C [19]: 83.3%
- viability, T/C [20]: 69.6%
- viability, T/C (second compound 10 µM, first compound 0.949 µM): 66.5%
- viability, T/C (second compound 10 µM, first compound 3 µM): 44.3%

SMILES: Nc1ncn(C2CC(O)C(CO)S2)c(=O)n1 (stereo not given) + Cc1ccccc1N=Nc1ccc(NC(=O)c2ccnn2C)c(C)c1
- IC50 (second compound 0.1 µM): > 0.3 µM
- IC50 (second compound 0.316 µM): > 0.3 µM
- IC50 (second compound 1 µM): > 0.3 µM
- IC50 (second compound 3.16 µM): > 0.3 µM
- IC50 (second compound 10 µM): > 0.3 µM
- viability, T/C (second compound 0.1 µM, first compound 0.000949 µM): 105%
- viability, T/C (second compound 0.1 µM, first compound 0.003 µM): 106%
- viability, T/C [1]: 115%
- viability, T/C [2]: 97%
- viability, T/C [3]: 77.8%
- viability, T/C [4]: 69.5%
- viability, T/C (second compound 0.316 µM, first compound 0.000949 µM): 93.6%
- viability, T/C (second compound 0.316 µM, first compound 0.003 µM): 111%
- viability, T/C [5]: 100%
- viability, T/C [6]: 95.9%
- viability, T/C [7]: 78.8%
- viability, T/C [8]: 63.4%
- viability, T/C (second compound 1 µM, first compound 0.000949 µM): 99.5%
- viability, T/C (second compound 1 µM, first compound 0.003 µM): 106%
- viability, T/C [9]: 99.9%
- viability, T/C [10]: 91.5%
- viability, T/C [11]: 102%
- viability, T/C [12]: 64.5%
- viability, T/C (second compound 3.16 µM, first compound 0.000949 µM): 87.1%
- viability, T/C (second compound 3.16 µM, first compound 0.003 µM): 101%
- viability, T/C [13]: 88.1%
- viability, T/C [14]: 90.6%
- viability, T/C [15]: 76.8%
- viability, T/C [16]: 65.7%
- viability, T/C (second compound 10 µM, first compound 0.000949 µM): 90%
- viability, T/C (second compound 10 µM, first compound 0.003 µM): 95.2%
- viability, T/C [17]: 84.1%
- viability, T/C [18]: 80.1%
- viability, T/C [19]: 83.1%
- viability, T/C [20]: 68%

SMILES: CC1(C)CCC(CN2CCN(c3ccc(C(=O)NS(=O)(=O)c4ccc(NCC5CCOCC5)c([N+](=O)[O-])c4)c(Oc4cnc5[nH]ccc5c4)c3)CC2)=C(c2ccc(Cl)cc2)C1 + Cc1ccccc1N=Nc1ccc(NC(=O)c2ccnn2C)c(C)c1
- IC50 (second compound 0.1 µM): > 10 µM
- IC50 (second compound 0.316 µM): > 10 µM
- IC50 (second compound 1 µM): > 10 µM
- IC50 (second compound 3.16 µM): > 10 µM
- IC50 (second compound 10 µM): > 10 µM
- viability, T/C [21]: 97.1%
- viability, T/C [22]: 108%
- viability, T/C [23]: 106%
- viability, T/C [24]: 103%
- viability, T/C [25]: 106%
- viability, T/C [26]: 82.4%
- viability, T/C [27]: 99.3%
- viability, T/C [28]: 105%
- viability, T/C [29]: 113%
- viability, T/C [30]: 99.6%
- viability, T/C [31]: 108%
- viability, T/C [32]: 85.9%
- viability, T/C [33]: 102%
- viability, T/C [34]: 101%
- viability, T/C [35]: 109%
- viability, T/C [36]: 98.3%
- viability, T/C [37]: 97.5%
- viability, T/C [38]: 78.1%
- viability, T/C [39]: 96.7%
- viability, T/C [40]: 97.1%
- viability, T/C [41]: 97.7%
- viability, T/C [42]: 97.9%
- viability, T/C [43]: 103%
- viability, T/C [44]: 90.3%
- viability, T/C [45]: 101%
- viability, T/C [46]: 97.5%
- viability, T/C [47]: 97.6%
- viability, T/C [48]: 95.6%
- viability, T/C [49]: 86.7%
- viability, T/C [50]: 77.2%

SMILES: COc1cc(C2c3cc4c(cc3C(OC3OC5COC(C)OC5C(O)C3O)C3COC(=O)C23)OCO4)cc(OC)c1O (stereo not given) + Cc1cncc(-c2nc(NCCc3c[nH]c4ccccc34)c3ncn(C(C)C)c3n2)c1
- IC50 (second compound 0.1 µM): 8.38 µM
- IC50 (second compound 0.316 µM): 5.93 µM
- IC50 (second compound 1 µM): 5.94 µM
- IC50 (second compound 3.16 µM): 7 µM
- IC50 (second compound 10 µM): > 10 µM
- viability, T/C [21]: 97.9%
- viability, T/C [22]: 97.9%
- viability, T/C [23]: 87.4%
- viability, T/C [24]: 72.4%
- viability, T/C [25]: 62.2%
- viability, T/C [26]: 47.4%
- viability, T/C [27]: 94%
- viability, T/C [28]: 107%
- viability, T/C [29]: 88.8%
- viability, T/C [30]: 75.9%
- viability, T/C [31]: 65.3%
- viability, T/C [32]: 39%
- viability, T/C [33]: 95.6%
- viability, T/C [34]: 103%
- viability, T/C [35]: 92.8%
- viability, T/C [36]: 78.8%
- viability, T/C [37]: 59%
- viability, T/C [38]: 42.9%
- viability, T/C [39]: 96.7%
- viability, T/C [40]: 92.5%
- viability, T/C [41]: 89.2%
- viability, T/C [42]: 72.4%
- viability, T/C [43]: 64.7%
- viability, T/C [44]: 43.7%
- viability, T/C [45]: 83.7%
- viability, T/C [46]: 76.8%
- viability, T/C [47]: 78.2%
- viability, T/C [48]: 73.8%
- viability, T/C [49]: 62.9%
- viability, T/C [50]: 50.6%

From PubChem BioAssay AID1918999 (Molecular Pharmacology Branch, DTP, NCI, 2023)
